What was measured:
[1] = fu,cell by equilibrium dialysis of cell homogenate, HEK293; assay type: in vitro ADME; conditions: human, dialysis 4 h 37°C, 10 million cells/mL homogenate, read-out: fu,HEK293 Geomean
Procedure: (§1) fu,cell was measured in cassette-mode as previously described with minor modifications ([9]). Briefly, 10 million cells/mL were suspended in HBSS buffered with 10 mM HEPES and homogenized on ice by sonication (VCX 750 Sonicator, 3 mm probe, 20% intensity, 10 s). Up to 8 compounds were combined randomly and spiked into the homogenate for a final concentration of 0.5 μM. Equilibrium dialysis was performed in a Rapid Equilibirum device (Thermo Fisher Scientific) against blank HBSS buffered with 10 mM HEPES, for 4 h at 37°C on an orbital shaker at 900 rpm. Stability controls were kept at 4° and 37°C for the duration of the experiment. The concentration in both dialysis chambers was quantified by extracting the compound with acetonitrile/water (60/40) containing internal standard. Matrixes were matched with blank buffer or cell homogenate, respectively. LC-MS/MS parameters are available in Table S9. All experiments were carried out in triplicates and at least at two independent occasions.
(§2) The unbound fraction in the cell homogenate (fu,hom) was determined according to Eq. (1):1 fu,hom=Cbuffer/Chom and the fraction of unbound compound in the cell (fu,cell) was calculated by correcting for homogenate dilution according to Eq. (2):2 fu,cell=1/DP∙1/fu,hom−1+1 where the dilution constant DP was calculated using Eq. (3), assuming the Vcell to be equal to 6.5 μL/mg protein ([6],[10]). Protein content in the cell homogenates was determined at each experiment using the BCA Protein Assay Reagent Kit (Thermo Fisher Scientific Inc.).3 DP=1/Vcell

[2] = fu,cell by equilibrium dialysis of cell homogenate, LLC-PK1; assay type: in vitro ADME; conditions: pig, dialysis 4 h 37°C, 10 million cells/mL homogenate, read-out: fu,LLCPK1 Geomean
Procedure: as §1, §2

[3] = fu,cell by equilibrium dialysis of cell homogenate, A549; assay type: in vitro ADME; conditions: human, dialysis 4 h 37°C, 10 million cells/mL homogenate, read-out: fu,A549 Geomean
Procedure: as §1, §2

[4] = fu,cell by equilibrium dialysis of cell homogenate, K562; assay type: in vitro ADME; conditions: human, dialysis 4 h 37°C, 10 million cells/mL homogenate, read-out: fu,K562 Geomean
Procedure: as §1, §2

[5] = fu,cell by equilibrium dialysis of cell homogenate, MDCK; assay type: in vitro ADME; conditions: dog, dialysis 4 h 37°C, 10 million cells/mL homogenate, read-out: fu,MDCK Geomean
Procedure: as §1
(§3) (3), assuming the Vcell to be equal to 6.5 μL/mg protein ([6],[10]). Protein content in the cell homogenates was determined at each experiment using the BCA Protein Assay Reagent Kit (Thermo Fisher Scientific Inc.).3 DP=1/Vcell

[6] = fu,cell by equilibrium dialysis of cell homogenate, primary human hepatocytes; assay type: in vitro ADME; conditions: primary human hepatocyte homogenate, dialysis 4 h 37°C, 10 million cells/mL homogenate, read-out: fu,HH Geomean
Procedure: as §1, §2

[7] = fu,PL from membrane affinity to PL-covered silica beads, PC; assay type: in vitro ADME; conditions: beads coated with pure PC, 15 min incubation; for fraction unbound at 15 min: silica beads covered with phosphatidylcholine (PC), Transil, read-out: fu,PC Geomean
Procedure: (§4) f u,PL was derived from membrane affinity measurements to beads covered with PLs as previously described ([6]).
(§5) Cbuffer was quantified by LC-MS/MS in samples of the supernatant that was obtained after 15 min incubation time on an orbital shaker at 1000 rpm and subsequent separation from the beads by centrifugation at 750 x g. […] Unspecific binding was evaluated by incubations into wells without added lipids.

[8] = fu,PL from membrane affinity to PL-covered silica beads, PS; assay type: in vitro ADME; conditions: silica beads covered with phosphatidylserine (PS), Transil; beads coated with pure PS, 15 min incubation; read-out: fu,PS Geomean
Procedure: as §4, §5

[9] = fu,PL from membrane affinity to PL-covered silica beads, mixed beads; assay type: in vitro ADME; conditions: mixed beads PC:PE:PS:PI 52:22:12:14 mol%, 15 min incubation; read-out: fu,mixed bead Geomean
Procedure: as §4, §5

cell types of the study = conditions: contributions from several PL subspecies combined (Fig. 5b)
[10] = fu,cell by equilibrium dialysis of cell homogenate, HL60; assay type: in vitro ADME; conditions: human, dialysis 4 h 37°C, 10 million cells/mL homogenate, read-out: fu,HL60 Geomean
Procedure: as §1, §2

[11] = fu,cell by equilibrium dialysis of cell homogenate, Caco-2; assay type: in vitro ADME; conditions: human, Caco-2 cell homogenate, dialysis 4 h 37°C, 10 million cells/mL homogenate, read-out: fu,Caco-2 Geomean
Procedure: as §1, §3

[12] = fu,PL from membrane affinity to PL-covered silica beads, PE; assay type: in vitro ADME; conditions: beads coated with pure PE, 15 min incubation; read-out: fu,PE Geomean
Procedure: as §4, §5

Row | fraction unbound at 4 h, 0.5 μM [1] | fraction unbound at 4 h, 0.5 μM [2] | fraction unbound at 4 h, 0.5 μM [3] | fraction unbound at 4 h, 0.5 μM [4] | fraction unbound at 4 h, 0.5 μM [5] | fraction unbound at 4 h, 0.5 μM [6] | fraction unbound at 15 min [8] | fraction unbound at 15 min [9] | fraction unbound at 4 h, 0.5 μM [10] | fraction unbound at 4 h, 0.5 μM [11] | fraction unbound at 15 min [7] | fraction unbound at 15 min [12] | Compound | fu,PC Geomean [7] | predicted versus measured fu,cell (cell types of the study)
1 | 0.0312 | 0.0305 | 0.0254 | 0.0385 | 0.0269 | 0.0097 | 0.0084 | 0.0095 | 0.0341 | 0.0225 | 0.0114 | 0.0039 | CCOc1cc(CC(=O)N[C@@H](CC(C)C)c2ccccc2N2CCCCC2)ccc1C(=O)O [Repaglinide] |  | consistently over-predicted
2 | 0.1 | 0.159 | 0.159 | 1 | 0.229 | 0.737 | 0.0045 | 0.028 | 0.646 | 0.456 | 0.0428 | 0.0081 | OC(Cn1cncn1)(Cn1cncn1)c1ccc(F)cc1F [Fluconazole] |  | 
3 | 0.0634 | 0.0538 | 0.0519 | 0.0856 | 0.036 | 0.0337 | 0.0014 | 0.004 | 0.0579 | 0.0335 | 0.002 | 0.0019 | COc1ccccc1Oc1c(NS(=O)(=O)c2ccc(C(C)(C)C)cc2)nc(-c2ncccn2)nc1OCCO [Bosentan] |  | 

Row | Compound | fraction unbound at 4 h, 0.5 μM [1] | fraction unbound at 4 h, 0.5 μM [2] | fraction unbound at 4 h, 0.5 μM [3] | fraction unbound at 4 h, 0.5 μM [4] | fraction unbound at 4 h, 0.5 μM [5] | fraction unbound at 4 h, 0.5 μM [6] | fraction unbound at 15 min [8] | fraction unbound at 15 min [9] | fraction unbound at 4 h, 0.5 μM [10] | fraction unbound at 4 h, 0.5 μM [11] | fraction unbound at 15 min [7] | fraction unbound at 15 min [12] | fu,PC Geomean [7] | predicted versus measured fu,cell (cell types of the study)
4 | CCN(CC)CCCC(C)Nc1c2ccc(Cl)cc2nc2ccc(OC)cc12 (centres unmarked) [Quinacrine] | 0.0075 | 0.0008 | 0.0009 | 0.0164 | 0.0036 | 0.0066 | 0.001 | 0.0029 |  |  |  |  | 0.0002 | consistently over-predicted

Reference: publication PMC6838048, “A Cell-Free Approach Based on Phospholipid Characterization for Determination of the Cell Specific Unbound Drug Fraction (fu,cell)” (Pharmaceutical Research, 2019)
